Measured values as given in US12583818B2 (DAEGU-GYEONGBUK MEDICAL INNOVATION FOUNDATION, priority 2020, dated 2026).
Like-named read-outs stand apart in the source and are kept apart here.

Assays:
[1] = target: T1, Pin1 (Homo sapiens, UniProt Q13526); assay: Evaluation of Pin1 enzyme inhibitory activity (Sensolyte Green Pin1 assay kit); assay type: biochemical
T1 construct: purchased Anaspec
Experimental: In order to evaluate the Pin1 enzyme inhibitory activity of the compound represented by formula 1 according to the present invention, the following experiment was performed, and the results are shown in Table 2 below.
The enzyme activity of Pin1 protein was measured using a sensolyte Green Pin1 assay kit of Anaspec. The substrate was diluted in a buffer at a ratio of 1:100 to prepare a concentration of 1 μM, and the protein was diluted in a buffer at a ratio of 1:20 to prepare a concentration of 50 μg/ml. In addition, a developing solution was prepared by diluting thereof in a buffer at a ratio of 1:100.
The compound prepared in each example was diluted with DMSO and prepared at a concentration of 100 μM, 10 μM, 1 μM or 0.1 μM using a buffer. After sequentially adding 10 μl of the compound prepared in each Example diluted to four concentrations according to the above method, 10 μl of Pin1 protein, and 30 μl of the developing solution to each well of a black 96-well plate, […]. Finally, 50 μl of the substrate was added to each well of the plate, and the enzyme reaction was carried out after shaking the plate for 10 seconds.
Then, the plate was incubated for 2 hours at room temperature in an environment without light, and the fluorescence values at 490 nm/520 nm wavelength were measured using a device of Synergy Neo […]. The results are shown in Table 2 below by dividing the grades of A to D for each concentration (μM) at which the Pin1 enzyme activity is inhibited.

[2] = system: A2780 cells (ovarian cancer cells); assay: Cell viability of A2780 cells (Cell-titer Glo); assay type: cell-based; settings: Homo sapiens
Experimental: (§1) In order to confirm the inhibitory effect of the compound represented by formula 1 according to the present invention on the growth of MCF7, MCF7-SP, A2780 or A2780-SP cells, the following experiment was performed, and the results are shown in Tables 4 and 5 below.
In addition, A2780 cells (ovarian cancer cells) were plated in a 96-well plate at the density of 3000 viable cells per well, and cultured in RPMI-1640 medium supplemented with 10% FBS and 1% penicillin/streptomycin.
(§2) On the next day of culture, the cells were treated with the compound of Examples 57, and 69 to 144, followed by culture for 3 days. Cell viability was evaluated by Cell-titer Glo (Promega, WC, USA), and luciferase activity was detected using a Tecan plate reader (Biocompare, USA).

[3] = system: A2780-SP cells (ovarian cancer stem cells); assay: Sphere cell viability of A2780-SP cells (Cell-titer Glo); assay type: cell-based
Experimental: as §1
On the other hand, A2780-SP cells (ovarian cancer stem cells) were plated in an Ultra-Low Attachment round bottom 96-well plate (corning) at the density of 1,500 viable cells per well, and cultured in cancer stem cell medium. The cancer stem cell medium is composed of the neurobasal medium supplemented with 20 ng/ml of bFGF, 10 ng/ml of EGF, […] of amphotericin B, HEPES, Glutamax and B27.
as §2, with “for 8” for “for 3”, “days. The medium containing the compound was added thereto once again on the 4th day. Sphere cell” for “days. Cell”

[4] = concentration at which the Pin1 enzyme activity is inhibited, 2 hours at room temperature, fluorescence 490 nm/520 nm, read-out: Pin 1 inhibition
[5] = 72 h, cell viability, culture for 3 days, read-out: A2780
[6] = 192 h, sphere cell viability, culture for 8 days, read-out: A2780-SP
[7] = Table 2, read-out: concentration at which Pin1 inhibitory activity was exhibited
[8] = A2780, Table 5, read-out: A2780 cell concentration
[9] = Table 5, read-out: the concentration (second list of b710, cell line not named; matches A2780-SP column)

T1 sequence (Q13526 whole entry): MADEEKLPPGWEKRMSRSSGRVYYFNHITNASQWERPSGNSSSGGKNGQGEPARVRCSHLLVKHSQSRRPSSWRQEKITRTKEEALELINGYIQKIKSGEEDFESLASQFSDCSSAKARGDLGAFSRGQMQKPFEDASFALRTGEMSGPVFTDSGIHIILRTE

| IC50 [1, 4] [nM] | IC50 [3, 6] [nM] | IC50 [1, 7] [nM] | Compound | other results |
| --- | --- | --- | --- | --- |
| 1000 to 10000 | 1000 to 10000 |  | O=S(=O)(NCCCc1c[nH]c2ccc(Cl)cc12)c1cccc(OCCCN2CCCCC2)c1 [Example 95, N-(3-(5-chloro-1H-indol-3-yl)propyl)-3-(3-(piperidin-1-yl)propoxy)benzenesulfonamide] | IC50 [2, 5]: > 10000 nM |
| < 1000 | < 1000 | < 1000 | O=S(=O)(NCCCc1c[nH]c2ccc(Cl)cc12)c1ccc(OCCCN2CCCC2)cc1 [Example 100, N-(3-(5-chloro-1H-indol-3-yl)propyl)-4-(3-(pyrrolidin-1-yl)propoxy)benzenesulfonamide] | IC50 [2, 5]: 1000 to 10000 nM; IC50 [2, 8]: < 10000 nM; IC50 [3, 9]: < 1000 nM |
| < 1000 | < 1000 | < 1000 | C[C@@H]1CN(CCCOc2ccc(S(=O)(=O)NCCCc3c[nH]c4ccc(Cl)cc34)cc2)CCN1 [Example 108, (R)—N-(3-(5-chloro-1H-indol-3-yl)propyl)-4-(3-(3-methylpiperazin-1-yl)propoxy)benzenesulfonamide] | IC50 [2, 5]: 1000 to 10000 nM; IC50 [2, 8]: < 10000 nM; IC50 [3, 9]: < 1000 nM |
| < 1000 | 1000 to 10000 | < 1000 | O=S(=O)(NCCCc1c[nH]c2ccc(Cl)cc12)c1ccc(NCCCN2CCNCC2)cc1 [Example 113, N-(3-(5-chloro-1H-indole-3-yl)propyl)-4-((3-(piperazine-1-yl)propyl)amino)benzenesulfonamide] |  |
| < 1000 | 1000 to 10000 | < 1000 | O=S(=O)(NCCCc1c[nH]c2ccc(Cl)cc12)c1ccc(NCCCN2CCCCC2)cc1 [Example 114, N-(3-(5-chloro-1H-indol-3-yl)propyl)-4-((3-(piperidin-1-yl)propyl)amino)benzenesulfonamide] |  |
| < 1000 | < 1000 | < 1000 | CN1CCC(CCCCc2ccc(S(=O)(=O)NCCCc3c[nH]c4ccc(Cl)cc34)cc2)CC1 [Example 115, N-(3-(5-chloro-1H-indol-3-yl)propyl)-4-(4-(1-methylpiperidin-4-yl)butyl)benzenesulfonamide] | IC50 [3, 9]: < 1000 nM |
| < 1000 | 1000 to 10000 | < 1000 | O=S(=O)(NCCCc1c[nH]c2ccc(Cl)cc12)c1ccc(OCC2(CN3CCNCC3)CC2)cc1 [Example 117, N-(3-(5-chloro-1H-indol-3-yl)propyl)-4-((1-(piperazin-1-ylmethyl)cyclopropyl)methoxy)benzenesulfonamide] |  |
| 1000 to 10000 |  |  | CN1CCN(c2cccc(Nc3ccc(S(=O)(=O)NCCCc4c[nH]c5ccc(Cl)cc45)cc3)n2)CC1 [Example 131, N-(3-(5-chloro-1H-indol-3-yl)propyl)-4-((6-(4-methylpiperazin-1-yl)pyridin-2-yl)amino)benzenesulfonamide] |  |
| 1000 to 10000 |  |  | O=S(=O)(NCCCc1c[nH]c2ccc(Cl)cc12)c1ccc(Nc2cccc(N3CCNCC3)n2)cc1 [Example 132, N-(3-(5-chloro-1H-indol-3-yl)propyl)-4-((6-(piperazin-1-yl)pyridin-2-yl)amino)benzenesulfonamide] |  |
| 1000 to 10000 |  |  | O=S(=O)(NCCCc1c[nH]c2ccc(Cl)cc12)c1ccc(Oc2cccc(N3CCCC3)c2)cc1 [Example 135, N-(3-(5-chloro-1H-indol-3-yl)propyl)-4-(3-(pyrrolidin-1-yl)phenoxy)benzenesulfonamide] |  |
| 1000 to 10000 |  |  | O=S(=O)(NCCCc1c[nH]c2ccc(Cl)cc12)c1ccc(Oc2cccc(N3CCC(O)CC3)c2)cc1 [Example 136, N-(3-(5-chloro-1H-indol-3-yl)propyl)-4-(3-(4-hydroxypiperidin-1-yl)phenoxy)benzenesulfonamide] |  |
| 1000 to 10000 |  |  | O=S(=O)(NCCCc1c[nH]c2ccc(Cl)cc12)c1ccc(Nc2cccc(N3CCC(O)CC3)c2)cc1 [Example 139, N-(3-(5-chloro-1H-indol-3-yl)propyl)-4-((3-(4-hydroxypiperidin-1-yl)phenyl)amino)benzenesulfonamide] |  |
| < 1000 | 1000 to 10000 | < 1000 | CN1CCN(c2cc(Cl)nc(Nc3ccc(S(=O)(=O)NCCCc4c[nH]c5ccc(Cl)cc45)cc3)c2)CC1 [Example 140, N-(3-(5-chloro-1H-indol-3-yl)propyl)-4-((6-chloro-4-(4-methylpiperazin-1-yl)pyridin-2-yl)amino)benzenesulfonamide] |  |
| < 1000 | 1000 to 10000 | < 1000 | CN1CCN(c2cc(Nc3ccc(S(=O)(=O)NCCCc4c[nH]c5ccc(Cl)cc45)cc3)nc(N3CCN(C)CC3)c2)CC1 [Example 141, 4-((4,6-bis(4-methylpiperazin-1-yl)pyridin-2-yl)amino)-N-(3-(5-chloro-1H-indol-3-yl)propyl)benzenesulfonamide] |  |
| 1000 to 10000 |  |  | CN1CCN(c2ccc(Nc3ccc(S(=O)(=O)NCCCc4c[nH]c5ccc(Cl)cc45)cc3)cc2)CC1 [Example 142, N-(3-(5-chloro-1H-indol-3-yl)propyl)-4-((4-(4-methylpiperazin-1-yl)phenyl)amino)benzenesulfonamide] |  |
| < 1000 | 1000 to 10000 | < 1000 | CN1CCN(CCCOc2ccc(C(=O)NCCCc3c[nH]c4ccc(Cl)cc34)cc2)CC1 [Example 143, N-(3-(5-chloro-1H-indole-3-yl)propyl)-4-(3-(4-methylpiperazine-1-yl)propoxy)benzamide] |  |
| 1000 to 10000 |  |  | O=C(NCCCc1c[nH]c2ccc(Cl)cc12)c1ccc(OCCCN2CCNCC2)cc1 [Example 144, N-(3-(5-chloro-1H-indol-3-yl)propyl)-4-(3-(piperazin-1-yl)propoxy)benzamide] |  |
| 1000 to 10000 |  |  | O=S(=O)(NCCCc1c[nH]c2ccc(-c3ccccc3)cc12)c1ccc(OCCCN2CCNCC2)cc1 [Example 155, N-(3-(5-phenyl-1H-indol-3-yl)propyl)-4-(3-(piperazin-1-yl)propoxy)benzenesulfonamide] |  |
| 1000 to 10000 |  |  | CN1CCN(CCCOc2ccc(S(=O)(=O)NCCCc3c[nH]c4ccc(-c5ccccc5)cc34)cc2)CC1 [Example 156, 4-(3-(4-methylpiperazin-1-yl)propoxy)-N-(3-(5-phenyl-1H-indol-3-yl)propyl)benzenesulfonamide] |  |
| 1000 to 10000 |  |  | CN1CCN(CCCOc2ccc(S(=O)(=O)NCCCc3c[nH]c4ccc(Cl)cc34)cc2)CC1=O [Example 162, N-(3-(5-chloro-1H-indol-3-yl)propyl)-4-(3-(4-methyl-3-oxopiperazin-1-yl)propoxy)benzenesulfonamide] |  |
| 1000 to 10000 |  |  | O=C1CN(CCCOc2ccc(S(=O)(=O)NCCCc3c[nH]c4ccc(Cl)cc34)cc2)CCN1 [Example 163, N-(3-(5-chloro-1H-indol-3-yl)propyl)-4-(3-(3-oxopiperazin-1-yl)propoxy)benzenesulfonamide] |  |
| 1000 to 10000 |  |  | CN1CCN(CCCOc2ccc(S(=O)(=O)NC3CCCC(c4c[nH]c5ccc(Cl)cc45)C3)cc2)CC1 (stereo not shown) [Example 179, N-(3-(5-chloro-1H-indol-3-yl)cyclohexyl)-4-(3-(4-methylpiperazin-1-yl)propoxy)benzenesulfonamide] |  |
| 1000 to 10000 |  |  | O=S(=O)(NC1CCCC(c2c[nH]c3ccc(Cl)cc23)C1)c1ccc(OCCCN2CCNCC2)cc1 (stereo not shown) [Example 180, N-(3-(5-chloro-1H-indol-3-yl)cyclohexyl)-4-(3-(piperazin-1-yl)propoxy)benzenesulfonamide] |  |
| 1000 to 10000 |  |  | CN1CCN(CCCOc2ccc(S(=O)(=O)Nc3ccccc3C(C)(C)c3c[nH]c4ccc(Cl)cc34)cc2)CC1 [Example 181, N-(2-(2-(5-chloro-1H-indole-3-yl)propane-2-yl)phenyl)-4-(3-(4-methylpiperazine-1-yl)propoxy)benzenesulfonamide] |  |
| 1000 to 10000 |  |  | CC(C)(c1ccccc1NS(=O)(=O)c1ccc(OCCCN2CCNCC2)cc1)c1c[nH]c2ccc(Cl)cc12 [Example 182, N-(2-(2-(5-chloro-1H-indol-3-yl)propan-2-yl)phenyl)-4-(3-(piperazin-1-yl)propoxy)benzenesulfonamide] |  |
